According to ChEMBL document CHEMBL5653615 (J Biol Chem, 2013):

Columns and labels:
[1] = target: Dual specificity protein kinase CLK2 (Homo sapiens) (UniProt P49760); assay: Inhibition of human CLK2 at 18.6 nM by HotSpot assay relative to control
[2] = target: T1, Ephrin type-B receptor 1 (Homo sapiens) (UniProt P54762); assay: Inhibition of human EPHB1 at 18.6 nM by HotSpot assay relative to control
T1 sequence (whole entry): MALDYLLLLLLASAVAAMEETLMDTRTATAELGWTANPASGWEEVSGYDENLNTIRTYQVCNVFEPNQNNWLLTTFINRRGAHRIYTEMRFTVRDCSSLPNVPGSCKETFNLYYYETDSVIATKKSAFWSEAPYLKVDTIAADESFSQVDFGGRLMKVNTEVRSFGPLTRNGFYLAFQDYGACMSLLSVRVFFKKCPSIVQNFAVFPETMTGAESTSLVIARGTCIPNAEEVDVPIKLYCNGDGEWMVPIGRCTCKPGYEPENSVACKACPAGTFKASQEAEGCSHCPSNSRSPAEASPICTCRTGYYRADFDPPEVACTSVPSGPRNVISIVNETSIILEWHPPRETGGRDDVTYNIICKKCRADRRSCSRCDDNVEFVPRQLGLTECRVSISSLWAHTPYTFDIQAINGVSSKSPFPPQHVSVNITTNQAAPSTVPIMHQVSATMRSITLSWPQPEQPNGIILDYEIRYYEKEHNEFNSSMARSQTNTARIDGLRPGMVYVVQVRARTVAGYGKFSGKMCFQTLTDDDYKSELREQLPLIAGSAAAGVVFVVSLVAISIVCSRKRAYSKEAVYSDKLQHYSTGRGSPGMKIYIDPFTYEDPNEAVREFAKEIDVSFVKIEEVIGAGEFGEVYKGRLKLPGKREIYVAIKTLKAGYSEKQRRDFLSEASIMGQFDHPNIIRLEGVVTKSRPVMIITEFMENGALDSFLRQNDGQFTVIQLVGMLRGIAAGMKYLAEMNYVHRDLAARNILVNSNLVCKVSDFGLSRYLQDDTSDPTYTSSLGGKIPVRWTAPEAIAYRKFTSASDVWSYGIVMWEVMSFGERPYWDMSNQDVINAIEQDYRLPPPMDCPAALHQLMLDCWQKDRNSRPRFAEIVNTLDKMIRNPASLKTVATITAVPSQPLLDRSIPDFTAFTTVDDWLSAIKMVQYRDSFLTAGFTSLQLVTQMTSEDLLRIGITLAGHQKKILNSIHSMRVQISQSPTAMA

[3] = target: T2, Mitogen-activated protein kinase kinase kinase 5 (Homo sapiens) (UniProt Q99683); assay: Inhibition of human ASK1 at 1.82 nM by HotSpot assay relative to control
T2 sequence (whole entry): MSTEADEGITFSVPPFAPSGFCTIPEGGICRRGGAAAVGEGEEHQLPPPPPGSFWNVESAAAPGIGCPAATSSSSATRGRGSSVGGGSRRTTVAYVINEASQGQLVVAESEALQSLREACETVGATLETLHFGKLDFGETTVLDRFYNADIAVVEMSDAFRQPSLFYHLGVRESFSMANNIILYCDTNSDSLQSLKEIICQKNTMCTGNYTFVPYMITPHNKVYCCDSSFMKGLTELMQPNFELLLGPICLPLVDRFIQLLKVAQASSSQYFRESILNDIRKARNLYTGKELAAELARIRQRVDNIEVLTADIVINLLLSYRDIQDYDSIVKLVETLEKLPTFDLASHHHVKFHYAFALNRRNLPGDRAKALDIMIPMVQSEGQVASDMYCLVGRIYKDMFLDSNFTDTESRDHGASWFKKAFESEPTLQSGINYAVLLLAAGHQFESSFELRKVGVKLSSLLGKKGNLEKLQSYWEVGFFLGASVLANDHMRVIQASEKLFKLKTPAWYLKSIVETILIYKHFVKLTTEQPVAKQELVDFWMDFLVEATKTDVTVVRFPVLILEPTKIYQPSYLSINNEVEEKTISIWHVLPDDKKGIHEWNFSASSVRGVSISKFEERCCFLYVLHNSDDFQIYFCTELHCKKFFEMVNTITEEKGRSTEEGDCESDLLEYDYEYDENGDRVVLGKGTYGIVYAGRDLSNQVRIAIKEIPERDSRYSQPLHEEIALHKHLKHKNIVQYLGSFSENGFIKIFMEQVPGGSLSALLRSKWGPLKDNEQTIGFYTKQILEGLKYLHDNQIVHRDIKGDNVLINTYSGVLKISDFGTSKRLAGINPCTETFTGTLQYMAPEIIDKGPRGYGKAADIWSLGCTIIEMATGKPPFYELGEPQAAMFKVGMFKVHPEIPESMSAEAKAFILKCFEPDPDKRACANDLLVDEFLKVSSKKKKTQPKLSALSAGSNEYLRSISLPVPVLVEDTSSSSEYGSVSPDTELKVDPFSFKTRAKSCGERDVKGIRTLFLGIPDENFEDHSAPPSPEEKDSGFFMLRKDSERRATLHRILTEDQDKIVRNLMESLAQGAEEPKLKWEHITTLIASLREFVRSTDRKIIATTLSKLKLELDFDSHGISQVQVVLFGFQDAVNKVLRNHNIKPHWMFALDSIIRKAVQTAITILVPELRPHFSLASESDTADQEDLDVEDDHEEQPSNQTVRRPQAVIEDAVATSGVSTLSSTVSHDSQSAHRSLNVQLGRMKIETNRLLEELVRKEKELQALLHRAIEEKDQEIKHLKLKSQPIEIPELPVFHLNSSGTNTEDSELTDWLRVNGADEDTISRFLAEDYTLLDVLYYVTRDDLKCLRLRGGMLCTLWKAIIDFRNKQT

[4] = target: T3, Serine/threonine-protein kinase 17A (Homo sapiens) (UniProt Q9UEE5); assay: Inhibition of human DRAK1 at 1.82 nM by HotSpot assay relative to control
T3 sequence (whole entry): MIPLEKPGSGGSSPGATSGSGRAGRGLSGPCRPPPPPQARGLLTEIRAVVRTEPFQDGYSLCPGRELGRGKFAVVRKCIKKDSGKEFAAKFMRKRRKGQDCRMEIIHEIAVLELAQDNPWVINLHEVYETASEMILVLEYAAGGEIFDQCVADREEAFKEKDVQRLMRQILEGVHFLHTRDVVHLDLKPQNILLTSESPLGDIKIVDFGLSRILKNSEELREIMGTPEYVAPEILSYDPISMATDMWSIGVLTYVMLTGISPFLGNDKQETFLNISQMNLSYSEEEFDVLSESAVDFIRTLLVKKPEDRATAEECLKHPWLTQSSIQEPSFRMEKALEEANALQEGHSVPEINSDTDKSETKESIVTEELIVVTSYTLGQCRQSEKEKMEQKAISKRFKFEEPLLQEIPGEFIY

[5] = target: Mitogen-activated protein kinase 1 (Homo sapiens) (UniProt P28482); assay: Inhibition of human ERK2 at 1.82 nM by HotSpot assay relative to control
Sequence of Mitogen-activated protein kinase 1 (Homo sapiens) (P28482 whole entry): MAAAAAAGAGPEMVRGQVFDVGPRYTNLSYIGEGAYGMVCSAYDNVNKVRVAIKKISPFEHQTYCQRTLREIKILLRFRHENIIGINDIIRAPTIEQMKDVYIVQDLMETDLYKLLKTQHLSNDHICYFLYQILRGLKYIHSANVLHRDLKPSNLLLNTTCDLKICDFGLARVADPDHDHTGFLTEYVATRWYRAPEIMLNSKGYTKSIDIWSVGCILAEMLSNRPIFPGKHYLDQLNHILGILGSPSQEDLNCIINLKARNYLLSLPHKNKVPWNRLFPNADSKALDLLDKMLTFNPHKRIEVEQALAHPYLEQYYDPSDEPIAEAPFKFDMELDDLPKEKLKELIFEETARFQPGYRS

[6] = target: Insulin receptor-related protein (Homo sapiens) (UniProt P14616); assay: Inhibition of human IRR at 1.82 nM by HotSpot assay relative to control
Sequence of Insulin receptor-related protein (Homo sapiens) (P14616 27-742 limits assumed): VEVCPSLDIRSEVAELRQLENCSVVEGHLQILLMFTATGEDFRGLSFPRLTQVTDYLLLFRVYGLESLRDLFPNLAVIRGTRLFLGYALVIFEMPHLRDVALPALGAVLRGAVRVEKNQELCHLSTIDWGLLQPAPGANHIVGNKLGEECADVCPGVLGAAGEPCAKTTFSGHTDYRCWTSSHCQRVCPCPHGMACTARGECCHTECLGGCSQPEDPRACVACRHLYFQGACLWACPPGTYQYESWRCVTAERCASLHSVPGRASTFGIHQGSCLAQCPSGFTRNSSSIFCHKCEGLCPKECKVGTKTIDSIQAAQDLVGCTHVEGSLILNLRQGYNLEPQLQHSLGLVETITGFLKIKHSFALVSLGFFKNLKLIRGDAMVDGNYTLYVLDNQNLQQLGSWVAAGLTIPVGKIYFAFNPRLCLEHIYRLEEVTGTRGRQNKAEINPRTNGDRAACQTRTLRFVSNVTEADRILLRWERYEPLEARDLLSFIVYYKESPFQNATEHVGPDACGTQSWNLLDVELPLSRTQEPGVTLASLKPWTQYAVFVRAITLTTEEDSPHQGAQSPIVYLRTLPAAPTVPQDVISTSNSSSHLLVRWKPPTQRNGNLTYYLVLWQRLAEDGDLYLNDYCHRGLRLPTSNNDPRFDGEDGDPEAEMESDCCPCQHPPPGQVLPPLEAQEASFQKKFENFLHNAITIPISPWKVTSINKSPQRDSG
Sequence of Insulin receptor-related protein (Homo sapiens) (P14616 747-1297 limits assumed): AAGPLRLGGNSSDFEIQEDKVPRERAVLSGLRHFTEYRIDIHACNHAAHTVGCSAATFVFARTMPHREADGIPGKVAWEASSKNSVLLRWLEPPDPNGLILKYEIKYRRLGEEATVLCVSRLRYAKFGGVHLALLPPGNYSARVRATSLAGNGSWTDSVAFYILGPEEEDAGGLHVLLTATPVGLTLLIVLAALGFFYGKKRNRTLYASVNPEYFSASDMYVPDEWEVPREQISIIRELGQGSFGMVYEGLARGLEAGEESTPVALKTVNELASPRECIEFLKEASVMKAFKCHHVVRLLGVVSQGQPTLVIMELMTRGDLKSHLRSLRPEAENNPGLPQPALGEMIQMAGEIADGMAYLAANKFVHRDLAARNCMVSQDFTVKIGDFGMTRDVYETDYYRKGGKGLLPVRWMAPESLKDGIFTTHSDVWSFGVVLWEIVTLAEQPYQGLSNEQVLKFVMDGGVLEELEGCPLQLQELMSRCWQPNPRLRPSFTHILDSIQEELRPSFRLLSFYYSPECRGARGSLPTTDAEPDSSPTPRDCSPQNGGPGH

Sequence of Dual specificity protein kinase CLK2 (Homo sapiens) (P49760 whole entry, looked up): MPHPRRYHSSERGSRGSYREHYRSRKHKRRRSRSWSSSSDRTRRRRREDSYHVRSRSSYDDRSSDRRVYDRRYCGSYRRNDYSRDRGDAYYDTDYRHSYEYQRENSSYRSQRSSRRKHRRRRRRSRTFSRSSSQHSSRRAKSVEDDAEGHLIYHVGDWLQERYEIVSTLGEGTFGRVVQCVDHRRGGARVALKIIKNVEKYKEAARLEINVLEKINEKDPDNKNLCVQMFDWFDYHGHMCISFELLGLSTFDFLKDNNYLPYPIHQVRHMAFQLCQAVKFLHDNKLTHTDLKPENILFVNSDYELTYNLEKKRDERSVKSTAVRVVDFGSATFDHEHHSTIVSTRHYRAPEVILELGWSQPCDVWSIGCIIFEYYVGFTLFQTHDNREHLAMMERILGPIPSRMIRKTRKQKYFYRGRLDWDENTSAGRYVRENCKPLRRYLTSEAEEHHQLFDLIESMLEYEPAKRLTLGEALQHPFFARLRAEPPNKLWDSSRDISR

Structure (SMILES): C[C@]1(O)C[C@@H](c2nc(-c3ccc4ccc(-c5ccccc5)nc4c3)c3c(N)nccn32)C1
- inhibition [1]: 4.4%
- inhibition [2]: -4.68%

Structure (SMILES): C[C@@]1(C(=O)Nc2ccc(F)nc2)CCCN1c1nc(Nc2cc(C3CC3)n[nH]2)c2cccn2n1
- inhibition [3]: -3.08%
- inhibition [4]: 2.5%
- inhibition [5]: -3.61%
- inhibition [6]: 33.5%
